“Also recorded” adds a separate entry of the source.
Legend:
[1] = Amphetamine antagonism (stereotypy in rats); assay type: in vivo; details: Rattus norvegicus
[2] = Acute toxicity, LD50 in male rats following peroral administration; assay type: in vivo; details: for LD50 at 168 h: rat, in vivo, po, male rats, p.o., one week after administration, read-out: LD50 p.o. in male rats after 1 week
Description: The acute toxicity, as measured by LD50 in male rats following peroral administration, is much lower for Lu 13-135 when compared with piflutixol one week after administration. The figure for Lu 13-135 is >60 mg/kg against 1.5 mg/kg for piflutixol.

[3] = Neuroleptic effect: duration and strength (remarks of Table 2); assay type: in vivo; details: for Duration (remarks, words): duration of neuroleptic effect; for Duration (remarks, words) / Strength of effect (remarks, words): in words; for Strength of effect (remarks, words): strength of neuroleptic effect
Excerpt: The pharmacological testing of the novel xanthones and thioxanthenes of Formula I consisted of standard and reliable tests. […]

[4] = Catalepsy wire mesh, rat, max.; assay type: in vivo, rats; details: for ED50: Rattus norvegicus, sc, read-out: Catalepsy wire mesh, rat, max. ED50
Description: Catalepsy wire mesh, rat, max. (ED50 mg/kg s.c.)
A vertical wire netting (50 cm×49 cm). The meshes (openings) of the netting are square (1 cm×1 cm). The wire diameter is 2 mm. Stop watch. Rats, male, 180-200 g.
The animals are labeled and used in groups of five. The test substance is injected subcutaneously (s.c.) (5 ml/kg) at 4 dose levels selected from the fixed dose scale.
The animals are placed in the middle of the vertical wire netting 60, 120, 180, 240, 300 and 360 minutes after injection of the test compound. The animals are considered cataleptic when they remain immobile during a period of 15 seconds. This cataleptic reaction is designated +. If the rats are "atonic" and passively slide down the wire mesh they are considered not cataleptic. If the animals climb up and down the wire mesh they are nor cataleptic. In both situations the designation - is used.

[5] = Methylphenidate antagonism (mice biting corrugated paper); assay type: in vivo; details: Mus musculus, ip
Description: Methylphenidate antagonism (ED50 mg/kg i.p.)
Perspex observation cages without bottom and lid, consisting of 5 sections each measuring 12×25×30 cm. White corrugated paper. Mice, male, 18-25 g.
The test substance is given i.p. in the doses 0, 1/8, 1/32 and 1/128 of the determined "i.p. LD50". 3×2 mice are used for each dose level. Two or 24 hours after injection of test substance, methylphenidate, 60 mg/kg, is injected s.c. After administration of methylphenidate the mice are placed in the observation cages, 2 in each cage, where they remain for exactly 1 hour. The cages are placed on corrugated paper, the corrugations facing upwards. It is examined whether the mice have been biting the corrugated paper or not. […] If one or more of the control pairs have not been biting, the test has to be repeated on a new set of mice.
The result is stated in fractions: 0/3, 1/3, 2/3 and 3/3 where 0, 1, 2 and 3 are the number of pairs which have not been biting on receipt of the dose in question.
The results are calculated as the dose (ED50), which causes antagonism in 50% of the test animals.

[6] = Catalepsy wire mesh, rat, max.; assay type: in vivo; details: po, rats
[7] = Sedation; details: in words; for b551 compared with piflutixol
[8] = mice, i.p., methylphenidate 60 mg/kg s.c. 2 h after test substance, read-out: Methylphenidate antagonism ED50, 2 h
[9] = mice, i.p., methylphenidate 60 mg/kg s.c. 24 h after test substance, read-out: Methylphenidate antagonism ED50, 24 h

Structure (SMILES)	ED50 ([1]; ip, 24 h, read-out: Amphetamine antagonism ED50) [mg/kg]	Acute toxicity ([2]; in words, compared with related thioxanthenes (b9) or piflutixol)	LD50 at 168 h [2] [mg/kg]	Duration (remarks, words) [3]	Strength of effect (remarks, words) [3]	ED50 ([4]; rats, s.c., strongest effect within first 6 hours) [mg/kg]	Cataleptic activity ([4]; in words)	ED50 [5, 8] [mg/kg]	ED50 [5, 9] [mg/kg]	ED50 [6] [mg/kg]	ED50 ([1]; po, read-out: Amphetamine antagonism ED50, p.o.) [mg/kg]	Sedation / sedative effect [7]	Duration ([3]; remarks column, hours) [h]	ED50 ([4]; 6 h) [mg/kg]	ED50 ([5]; 2 h, read-out: Methylphenidate antagonism ED50, 2 h) [mg/kg]	ED50 ([5]; 24 h, read-out: Methylphenidate antagonism ED50, 24 h) [mg/kg]
O[C@H]1CC[C@H](CN2CCC(=C3c4ccc(F)cc4Sc4ccc(C(F)(F)F)cc43)CC2)CC1 [Lu 13-135, 1-(trans-4-hydroxycyclohexylmethyl)-4-(2-trifluoromethyl-6-fluoro-9-thioxanthenyliden)-piperidine]	0.32	much lower	> 60	very long acting; also recorded: long acting	strong; also recorded: very strong	0.4	have a cataleptic activity	0.32	0.19	–	–	–	–	–	–	–
CS(=O)(=O)N[C@H]1CC[C@H](CN2CCC(=C3c4ccc(F)cc4Sc4ccc(C(F)(F)F)cc43)CC2)CC1 [Lu 16-049]	–	–	–	long acting	moderately strong	–	–	1	0.49	1.7	2.5	–	–	–	–	–
OCCC1CCN(CC/C=C2/c3ccc(F)cc3Sc3ccc(C(F)(F)F)cc32)CC1 [piflutixol, 2-trifluoromethyl-6-fluoro-9-(3-(4-(2-hydroxyethyl)-1-piperidyl)propylidene)-thioxanthene, reference compound]	–	–	1.5	most long acting	most patent	–	–	–	–	–	–	very strong sedative effects	48 to 72	0.05	0.03	0.03

Source: patent publication US4285956A, “Xanthene and thioxanthene derivatives, compositions thereof and treatment therewith” (priority 1978, dated 1981)
